Read-outs that look alike come from different tables or passages of the source.
Tests used:
HCV genotype 5a replicon = assay: HCV replicon assay, GT 5a (luciferase readout); type: cell-based; settings: Hepatitis C virus; GT 5a replicon; n > 3
Method: (§1) Biological activity of the compounds of the invention was determined using an HCV replicon assay. The 1b_Huh-Luc/Neo-ET cell line persistently expressing a bi-cistronic genotype 1b replicon in Huh 7 cells was obtained from ReBLikon GMBH. This cell line was used to test compound inhibition using luciferase enzyme activity readout as a measurement of compound inhibition of replicon levels.
(§2) On Day 1 (the day after plating), each compound was added in triplicate to the cells. Plates incubated for 72 hrs prior to running the luciferase assay. Enzyme activity was measured using a Bright-Glo Kit (cat. number E2620) manufactured by Promega Corporation. The following equation was used to generate a percent control value for each compound.
(§3) % Control=(Average Compound Value/Average Control)*100
(§4) The EC50 value was determined using GraphPad Prism and the following equation:
(§5) Y=Bottom+(Top−Bottom)/(1+10̂((LogIC50−X)*HillSlope))
(§6) EC50 values of compounds are repeated several times in the replicon assay.
(§7) The disclosed compounds can inhibit multiple genotypes of HCV including, but not limited to 1a, 1b, 2a, 3a, 4a and 5a. The EC50s are measured in the corresponding replicon assays that are similar to HCV 1b replicon assay as described above.

HCV genotype 1a replicon = assay: HCV replicon assay, GT 1a (luciferase readout); type: cell-based; settings: Hepatitis C virus; GT 1a replicon; n > 3
Method: as §1, §2, §3, §4, §5, §6, §7

HCV genotype 2a replicon = assay: HCV replicon assay, GT 2a (luciferase readout); type: cell-based; settings: Hepatitis C virus; GT 2a replicon; n > 3
Method: as §1, §2, §3, §4, §5, §6, §7

HCV genotype 4a replicon = assay: HCV replicon assay, GT 4a (luciferase readout); type: cell-based; settings: Hepatitis C virus; GT 4a replicon; n > 3
Method: as §1, §2, §3, §4, §5, §6, §7

[1] = test system: bi-cistronic genotype 1b replicon in Huh 7 cells (1b_Huh-Luc/Neo-ET cell line); assay: HCV replicon assay, GT 1b (luciferase readout); type: cell-based; settings: Hepatitis C virus, GT 1b replicon, n > 3
Method: as §1, §2, §3, §4, §5, §6

HCV genotype 3a replicon = assay: HCV replicon assay, GT 3a (luciferase readout); type: cell-based; settings: Hepatitis C virus; GT 3a replicon; n > 3
Method: as §1, §2, §3, §4, §5, §6, §7

[2] = Moisture sorption profile (DVS) of Compound II Form I and amorphous Compound II; type: physicochemical; settings: DVS at 25° C.
Method: The moisture sorption profile was generated of the sample as well as of a sample of amorphous Compound II at 25° C. using a DVS Moisture Balance Flow System (Model Advantage) with the following conditions: sample size approximately 10 mg, drying 25° C. for 60 minutes, adsorption range 0% to 95% RH, desorption range 95% to 0% RH, and step interval 5%. The equilibrium criterion was <0.01% weight change in 5 minutes for a maximum of 120 minutes.

[3] = Solubility of Form I and free base compound 4-3 (visual and HPLC assay of filtrate); type: physicochemical; settings: for pH (Filtrated): filtrate of solubility sample; for HPLC Solubility / Visual Solubility (observation in words) / solubility at 24 h: target conc. 2.0 mg/mL; for HPLC Solubility / solubility at 24 h: 24 hours ambient, 0.45-μm filtrate; for solubility at 24 h: thermodynamic from solid, read-out: HPLC Solubility
Method: Solubility of Form I as well as the free base compound 4-3 was tested. Solubility was measured by placing a small quantity of the compound to be analyzed in a glass vial, capping and rotating the vial overnight at ambient conditions (24 hours). Target concentration was 2.0 mg/mL. The samples were filtrated with 0.45-μm filters. The subsequent filtrate was collected for HPLC assay. HPLC conditions are shown in Table 10 in Appendix A. Solubility for Form I is shown in Table 11 and for the free base compound 4-3 is shown in Table 12 in Appendix A. [table]

SMILES: CC[C@H](C)[C@H](NC(=O)OC)C(=O)N1CCC[C@H]1c1nc2ccc(-c3ccc4cc(-c5cnc([C@@H]6CCCN6C(=O)[C@@H](NC(=O)OC)[C@@H](C)OC)[nH]5)ccc4c3)cc2[nH]1 [Compound II]
- EC50 (HCV genotype 5a replicon): 0.04 nM
- EC50 (HCV genotype 1a replicon): 0.07 nM
- EC50 (HCV genotype 2a replicon): 0.11 nM
- EC50 (HCV genotype 4a replicon): 0.04 nM
- EC50 [1]: 0.01 nM
- EC50 (HCV genotype 3a replicon): 0.4 nM

SMILES: CC[C@H](C)[C@H](NC(=O)OC)C(=O)N1CCC[C@H]1c1nc2ccc(-c3ccc4cc(-c5cnc([C@@H]6CCCN6C(=O)[C@@H](NC(=O)OC)[C@@H](C)OC)[nH]5)ccc4c3)cc2[nH]1 [amorphous Compound II]
- weight percentage change (water uptake) from 0-75% RH [2]: 13.57%

SMILES: COC(=O)N[C@H](C(=O)N1CCC[C@H]1c1ncc(-c2ccc3cc(-c4ccc5nc([C@@H]6CCCN6C(=O)[C@@H](NC(=O)OC)C(C)C)[nH]c5c4)ccc3c2)[nH]1)C(C)C [Compound I]
- EC50 (HCV genotype 5a replicon): 0.039 nM
- EC50 (HCV genotype 1a replicon): 0.135 nM
- EC50 (HCV genotype 2a replicon): 0.139 nM
- EC50 (HCV genotype 4a replicon): 0.052 nM
- EC50 [1]: 0.016 nM
- EC50 (HCV genotype 3a replicon): 1.26 nM

SMILES: CC[C@H](C)[C@H](NC(=O)OC)C(=O)N1CCC[C@H]1c1nc2ccc(-c3ccc4cc(-c5cnc([C@@H]6CCCN6C(=O)[C@@H](NC(=O)OC)[C@@H](C)OC)[nH]5)ccc4c3)cc2[nH]1 [compound 4-3]
- pH (Filtrated) ([3]; 0.1N HCl): 1.09
- HPLC Solubility ([3]; 0.1N HCl): 2.066 mg/mL
- pH (Filtrated) ([3]; Water): 8.83
- Visual Solubility (observation in words) ([3]; Water): Turbid +
- HPLC Solubility ([3]; Water): <0.001 mg/mL
- pH (Filtrated) ([3]; pH 2 medium): 2.17
- HPLC Solubility ([3]; pH 2 medium): 2.056 mg/mL
- pH (Filtrated) ([3]; pH 3 medium): 3.59
- Visual Solubility (observation in words) ([3]; pH 3 medium): A few
- HPLC Solubility ([3]; pH 3 medium): 1.763 mg/mL
- pH (Filtrated) ([3]; pH 4 medium): 4.72
- Visual Solubility (observation in words) ([3]; pH 4 medium): Turbid +
- HPLC Solubility ([3]; pH 4 medium): 0.011 mg/mL
- pH (Filtrated) ([3]; pH 5 medium): 5.27
- HPLC Solubility ([3]; pH 5 medium): 0.001 mg/mL
- solubility at 24 h ([3]; pH 6 medium, pH 6, aqueous buffer, pH 6 medium): < 1 µg/mL
- pH (Filtrated) ([3]; pH 6 medium): 6.04
- Visual Solubility (observation in words) ([3]; pH 6 medium): Turbid +
- solubility at 24 h ([3]; pH 7 medium, pH 7, aqueous buffer, pH 7 medium): < 1 µg/mL
- pH (Filtrated) ([3]; pH 7 medium): 7.00
- Visual Solubility (observation in words) ([3]; pH 7 medium): Turbid +
- solubility at 24 h ([3]; pH 8 medium, pH 8, aqueous buffer, pH 8 medium): < 1 µg/mL
- pH (Filtrated) ([3]; pH 8 medium): 7.91
- Visual Solubility (observation in words) ([3]; pH 8 medium): Turbid +
